Results: publication PMC6940745 (International Journal of Molecular Sciences, 2019)
Where a SMILES comes first, the peptide text is derived from it. [ ]: non-standard residue; d: D form. The star is where a group is joined. Bz = O=C(c1ccccc1)*; NPr2 = CCCN(CCC)*

Assays:
OP1R = target: T1, OP1R (Homo sapiens, UniProt P41143); test: OP1R (delta opioid) activation, GTPγS scintillation proximity assay; type: biochemical; conditions: eight concentrations, 0.01 to 100,000 nM
T1 construct: host or cells: CHO-K1 (membrane preparations)
Protocol: Melatonin (MT1R and MT2R) and opioid receptor (OP1R, OP2R, and OP3R, corresponding to human delta, kappa, and mu opioid receptors) activation assays were performed by means of GTPγS scintillation proximity assays. For agonist testing, membrane preparations from CHO-K1 cells expressing each receptor (EuroscreenFast, Gosselies, Belgium) were mixed with guanosine diphosphate (GDP) (v/v). In parallel, GTPγ[^35S] (PerkinElmer, NEG030X, 0.1 nM final assay concentration) was mixed with PVT-WGA beads (Perkin Elmer, RPNQ001, 0.5 mg/well final assay density) (v/v) just before starting the reaction. The following reagents were then successively added in the wells of an Optiplate (Perkin Elmer): A total of 50 µL of test or reference ligand diluted in assay buffer, 10 µL of assay buffer (20 mM HEPES pH 7.4; 100–200 mM NaCl, 10 µg/mL saponin, MgCl2 at optimized concentration for the specific receptor, 0%–0.1% BSA), 20 µL of the membranes: GDP mix, and 20 µL of the GTPγ[^35S]: Beads mix. The plates were covered with a top seal, mixed on an orbital shaker for 2 min, and then incubated for 1 h at room temperature. Then the plates were centrifuged for 10 min at 2000 rpm, incubated at room temperature for 1 h, and counted for 1 min/well with a PerkinElmer TopCount™ reader.

[1] = system: human abdominal skin ex vivo; test: Stimulation of pigmentation in human abdominal skin ex vivo (Fontana-Masson melanin quantification); type: cell-based; conditions: topical
Protocol: (§1) Following declaration of Helsinki principles (DoH-Oct2013, World Medical Association, Ferney-Voltaire, France), human skin samples were obtained from elective plastic surgery after informed consent was obtained. For the two experiments shown in Figure 2, Figure 3 and Figure 4, we had one person with an individual topology angle (ITA°) of 18, and one person with an ITA° of 39 [69]. The skin samples were cut in pieces of 8 × 3 mm and cultured up to day 6. Skin samples were cultured in an air–liquid interface in a perforated ring of stainless steel in contact with culture medium (modified Williams’ E medium). The culture medium was renewed every three days (i.e., day 0–3). Compounds were added daily in DMSO at 4 µL volume. At day 6, the skin samples were fixed in formalin, embedded in paraplast, and cut at the microtome for histochemical staining and consequent image analysis. Six skin biopsies were used for each single treatment.
Two skin biopsies for each treatment were weighed and, in each case, reduced in the dermal portion, in order to have approximately the same weight for all of them. Samples were then washed and processed with methylthiazolyldiphenyl-tetrazolium bromide (MTT). The color intensity, that is directly proportional to skin vitality, was measured with a plate reader at a wavelength of 570 nm. For melanin quantification, skin sections were stained with a modified Fontana-Masson stain that dyes melanin argentaffin granules in black/dark grey. The amount of melanin present in each slide was evaluated by estimating grey intensity and distribution within the sections using ImageJ application (NIH-USA). Two slides of each skin sample were processed by image acquisition and related analysis (i.e., 12 images for each treatment).
Figure 2 Stimulation of pigmentation by MC1R-agonist peptides ex vivo. Melanin was quantified on skin sections using ImageJ software (NIH, USA). Human abdominal skin was topically treated with peptides at various concentrations for six days. * p < 0.05 vs vehicle by unpaired Student’s t-test. […]

human ETBR = human ETBR (Homo sapiens, UniProt P24530); test: ETBR activation, Aequorin assay; type: cell-based; conditions: eight concentrations, 0.01 to 100,000 nM
Protocol: (§2) Melanin-concentrating hormone receptor (MCHR), endothelin-1 receptor (ETBR), and serotonin-receptor (5-HT2AR) assays were performed by means of Aequorin assays. Recombinant cells co-expressing human MCH1R, MCH2R, ETBR, or 5-HT2AR and mitochondrial apoaequorin (MCH1R, MCH2R and 5-HT2AR cells also co-express recombinant Gα16 protein) (EuroscreenFast, Gosselies, Belgium), grown 18 h prior to the test in media without antibiotics, were detached by gentle flushing with PBS-EDTA (5 mM EDTA), recovered by centrifugation, and resuspended in assay buffer (DMEM/HAM’s F12 with HEPES + 0.1% BSA protease free). Cells were incubated under agitation at room temperature for at least 4 h with Coelenterazine h (Promega, X300X, 0.5 µM final concentration). Dose response curves with the reference compounds were performed before testing the compounds. For agonist testing, 50 µL of cell suspension was injected on 50 µL of test compound or reference agonist diluted in assay buffer and plated in a 96-well plate. The resulting emission of light was recorded using the Hamamatsu Functional Drug Screening System 6000 (FDSS 6000). […] Agonist activity of test compound was expressed as a percentage of the activity of the reference agonist at its EC100 concentration.

TYRP-1 = TYRP-1 protein expression in human skin ex vivo (immunohistochemistry); type: cell-based; conditions: topical 30, 100 and 200 µM, six days; p < 0.05
Protocol: as §1
Twelve skin sections from the ex vivo melanogenesis experiment above were immunoassayed with the selected antibodies (TYR, Thermo Scientific #MS-800-P0 (Thermo Scientific, Waltham, MA, USA); TYRP-1, Covance #SIG-38150 (Covance Inc., Princeton, NJ, USA), MITF, Abcam #ab80651 (Abcam plc, Cambridge, UK). The number of positive cells within the epidermis was counted and the value was normalized upon the length of the basal lamina, thus obtaining a score. […]

human MCH2R = human MCH2R (Homo sapiens, UniProt Q969V1); test: MCH2R activation, Aequorin assay; type: cell-based; conditions: eight concentrations, 0.01 to 100,000 nM
Protocol: as §2

T1 sequence (P41143 whole entry): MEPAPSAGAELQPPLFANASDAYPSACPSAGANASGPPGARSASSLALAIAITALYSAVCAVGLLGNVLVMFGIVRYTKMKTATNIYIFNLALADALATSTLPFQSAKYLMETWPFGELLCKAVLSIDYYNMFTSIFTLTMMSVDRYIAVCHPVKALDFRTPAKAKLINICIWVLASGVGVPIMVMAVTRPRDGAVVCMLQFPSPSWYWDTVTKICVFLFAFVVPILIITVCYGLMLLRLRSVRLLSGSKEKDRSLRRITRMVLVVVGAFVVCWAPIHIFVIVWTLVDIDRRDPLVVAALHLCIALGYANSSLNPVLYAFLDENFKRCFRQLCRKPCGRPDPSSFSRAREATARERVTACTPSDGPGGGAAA
human ETBR, sequence (P24530 27-442): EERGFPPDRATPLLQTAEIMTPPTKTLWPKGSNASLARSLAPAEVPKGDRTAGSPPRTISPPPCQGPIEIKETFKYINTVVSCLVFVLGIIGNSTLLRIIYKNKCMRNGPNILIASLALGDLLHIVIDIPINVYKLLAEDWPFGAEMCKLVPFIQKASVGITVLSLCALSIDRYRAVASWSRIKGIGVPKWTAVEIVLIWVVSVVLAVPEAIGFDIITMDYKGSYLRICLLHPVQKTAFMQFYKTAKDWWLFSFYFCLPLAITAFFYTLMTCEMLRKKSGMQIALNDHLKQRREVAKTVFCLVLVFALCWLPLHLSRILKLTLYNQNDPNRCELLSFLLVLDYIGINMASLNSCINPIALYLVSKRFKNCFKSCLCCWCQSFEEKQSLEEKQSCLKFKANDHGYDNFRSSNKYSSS
human MCH2R, sequence (Q969V1 whole entry): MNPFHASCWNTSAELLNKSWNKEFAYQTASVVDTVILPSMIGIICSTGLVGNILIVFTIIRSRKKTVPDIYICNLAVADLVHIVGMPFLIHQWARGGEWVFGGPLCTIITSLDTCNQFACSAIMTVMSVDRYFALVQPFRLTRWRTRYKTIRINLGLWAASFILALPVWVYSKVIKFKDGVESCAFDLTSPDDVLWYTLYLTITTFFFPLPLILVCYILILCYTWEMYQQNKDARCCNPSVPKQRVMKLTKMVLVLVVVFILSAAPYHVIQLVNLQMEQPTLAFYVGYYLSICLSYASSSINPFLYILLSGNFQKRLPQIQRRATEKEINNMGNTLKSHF

SMILES: CCCN(CCC)C(=O)[C@@H](Cc1c[nH]c2ccccc12)NC(=O)[C@H](CCCNC(=N)N)NC(=O)[C@@H](Cc1ccccc1)NC(=O)[C@H](Cc1c[nH]cn1)NC(=O)CNC(=O)c1ccccc1 [Peptide 4] (Bz-GH[dF]R[dW]-NPr2)
- EC50 (OP1R): > 100 µM
- Stimulation of pigmentation compared to vehicle-treated control tissue ([1]; 200 µM peptide, six days): up to 21%
- Concentration of optimal activity for pigmentation enhancement ([1]; human abdominal skin ex vivo): 30 µM
- EC50 (human ETBR): > 100 µM
- Maximal induction of TYRP-1 protein expression vs vehicle (TYRP-1): 72%
- EC50 (human MCH2R): > 100 µM
